Data taken from patent US10278957B2, “Opioid agonist peptides and uses thereof” (Protagonist Therapeutics, Inc., priority 2017, dated 2019).
Square brackets hold non-standard residues; d marks the D form. Peptide text beside a SMILES is read from it. Phe(3,4-(OMe)2) = COc1ccc(C[C@H](N)C(=O)O)cc1OC; Phe(3,4-Cl2) = N[C@@H](Cc1ccc(Cl)c(Cl)c1)C(=O)O; Phe(4-tBu) = CC(C)(C)c1ccc(C[C@H](N)C(=O)O)cc1; Bip = N[C@@H](Cc1ccc(-c2ccccc2)cc1)C(=O)O; Dip = N[C@H](C(=O)O)C(c1ccccc1)c1ccccc1; Phe(4-F) = N[C@@H](Cc1ccc(F)cc1)C(=O)O; Dmt = Cc1cc(O)cc(C)c1C[C@H](N)C(=O)O; dNMeF = CN[C@H](Cc1ccccc1)C(=O)O; hPhe = N[C@@H](CCc1ccccc1)C(=O)O; αMeF = C[C@](N)(Cc1ccccc1)C(=O)O; Tic = O=C(O)[C@@H]1Cc2ccccc2CN1; β3hF = N[C@H](CC(=O)O)Cc1ccccc1; N(octyl)Gly = CCCCCCCCNCC(=O)O; Nle = CCCC[C@H](N)C(=O)O; Sar = CNCC(=O)O

target: T1, δ-opioid receptor (DOR) (Homo sapiens, UniProt P41143); experiment: DOR agonist cAMP assay (HitHunter cAMP, forskolin-stimulated); type: cell-based
T1 construct: host or cells: cAMP Hunter CHO-K1 OPRD1 Gαi cell line
T1 sequence (P41143 whole entry): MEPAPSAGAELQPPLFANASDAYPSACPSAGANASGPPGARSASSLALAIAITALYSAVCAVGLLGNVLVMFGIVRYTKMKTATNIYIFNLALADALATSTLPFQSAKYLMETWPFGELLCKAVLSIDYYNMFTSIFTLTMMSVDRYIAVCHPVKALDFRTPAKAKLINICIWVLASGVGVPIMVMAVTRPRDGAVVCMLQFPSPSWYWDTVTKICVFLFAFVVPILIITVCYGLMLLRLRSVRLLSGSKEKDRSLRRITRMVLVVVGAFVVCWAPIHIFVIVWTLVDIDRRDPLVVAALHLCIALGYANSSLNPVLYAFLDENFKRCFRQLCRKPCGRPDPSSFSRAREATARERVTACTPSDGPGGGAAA
Description: The HitHunter® cAMP chemiluminescent assay kit (DiscoveRx, Cat# 90-0075 SM25) was used to detect cAMP production in cAMP Hunter™ Gαi cell lines over expressing either Human-ORPM1 (Discoverx, Catalog# 95-0107C2) or Human-ORPD1 (DiscoveRx, Catalog# 95-0108C2). Opioid agonist binding to the Gαi receptors inhibits the intracellular cAMP accumulation induced by forskolin, which activates adenylate cyclase and increases intracellular levels of cAMP.
Cells were cultured in media consisting of Ham's F-12 Nutrient Mix (Life Technologies, Catalog#31765035), 10% FBS (Life Technologies, Catalog# 16140-071), 4 mM GlutaMAX (Life Technologies, Catalog#35050-061), […] (Life Technologies), 100 ug/ml of Penn-Strep (Life Technologies) and 0.5 mg/ml Geneticin (Life Technologies, Catalog# 10131-027). The cultures were maintained at 37° C. under 5% CO2.
In preparation for cAMP assay, the cells were seeded at a density of 300,000 cells/ml in 100 ul of media/well in 96-well microplate. Wells that were designated for cAMP standards were left empty.
Opioid agonist serial dilutions were prepared in separate dilution plate (11-point series of 3× (3-fold) dilution) in Cell Assay buffer, including 3× forskolin for Gαi target. For Hunter CHO-K1 OPRM1 or CHO-K1 OPRD1 Gαi Cell Lines, the final forskolin concentration was 20 uM.
15 ul of each 3× opioid agonist serial dilution was added in the presence of forskolin in duplicate to the designated wells. The final concentration of each dilution was at 3× of the final screening concentration. The assay plate was incubated for 30 min, at 37° C. under 5% CO2.
Cellular cAMP concentrations were measured using the HitHunter cAMP Assay kit following the manufacturer's protocol. HitHunter cAMP assay is a gain-of-signal competitive immunoassay based on Enzyme Fragment Complementation (EFC) technology. The kit uses β-galactosidase (β-gal) enzyme split into Enzyme Donor (ED) and Enzyme Acceptor (EA). The cellular cAMP and ED-labelled cAMP compete for anti-cAMP antibody. […] When cellular cAMP level is high, it competes for the anti-cAMP antibody, thereby releasing ED-cAMP to complement with EA to produce a luminescent signal. The amount of signal is directly proportional to the amount of cAMP in cells and can be quantified using cAMP standards. The assay plates were read using a PerkinElmer Envision instrument to detect the chemiluminescence signal in each well (luminescence reader at 0.1 to 1 second/well). Data analysis was performed using Graphpad Prism 7.EC50 was calculated by nonlinear regression, using the four-parameter hill equation.

| SMILES | EC50 [µM] |
| --- | --- |
| Cc1cc(O)cc(C)c1C[C@H](N)C(=O)N[C@H](CCCNC(=N)N)C(=O)N[C@@H](Cc1ccccc1)C(=O)N(C)[C@H](Cc1ccccc1)C(N)=O [compound 14] (H-[Dmt][dR]F[dNMeF]-NH2) | 0.01 to 0.05 |
| Cc1cc(O)cc(C)c1C[C@H](N)C(=O)N[C@H](CCCNC(=N)N)C(=O)N[C@@H](Cc1ccccc1)C(=O)N[C@@](C)(Cc1ccccc1)C(N)=O [compound 15] (H-[Dmt][dR]F[αMeF]-NH2) | 0.001 to 0.01 |
| Cc1cc(O)cc(C)c1C[C@H](N)C(=O)N[C@H](CCCNC(=N)N)C(=O)N[C@@H](Cc1ccccc1)C(=O)N[C@@H](Cc1ccc(F)cc1)C(N)=O [compound 16] (H-[Dmt][dR]F[Phe(4-F)]-NH2) | 0.01 to 0.05 |
| COc1ccc(C[C@H](NC(=O)[C@H](Cc2ccccc2)NC(=O)[C@@H](CCCNC(=N)N)NC(=O)[C@@H](N)Cc2c(C)cc(O)cc2C)C(N)=O)cc1OC [compound 17] (H-[Dmt][dR]F[Phe(3,4-(OMe)2)]-NH2) | 0.001 to 0.01 |
| Cc1cc(O)cc(C)c1C[C@H](N)C(=O)N[C@H](CCCNC(=N)N)C(=O)N[C@@H](Cc1ccccc1)C(=O)N[C@@H](CCc1ccccc1)C(N)=O [compound 18] (H-[Dmt][dR]F[hPhe]-NH2) | 0.001 to 0.01 |
| Cc1cc(O)cc(C)c1C[C@H](N)C(=O)N[C@H](CCCNC(=N)N)C(=O)N1Cc2ccccc2C[C@H]1C(=O)N(C)CC(N)=O [compound 21] (H-[Dmt][dR][Tic][Sar]-NH2) | > 0.2 |
| Cc1cc(O)cc(C)c1C[C@H](N)C(=O)N[C@H](CCCNC(=N)N)C(=O)N[C@@H](Cc1ccc(Cl)c(Cl)c1)C(=O)N(C)CC(N)=O [compound 22] (H-[Dmt][dR][Phe(3,4-Cl2)][Sar]-NH2) | 0.01 to 0.05 |
| Cc1cc(O)cc(C)c1C[C@H](N)C(=O)N[C@H](CCCNC(=N)N)C(=O)N[C@@H](Cc1ccc(-c2ccccc2)cc1)C(=O)N(C)CC(N)=O [compound 23] (H-[Dmt][dR][Bip][Sar]-NH2) | < 0.001 |
| Cc1cc(O)cc(C)c1C[C@H](N)C(=O)N[C@H](CCCNC(=N)N)C(=O)N[C@@H](Cc1ccc(C(C)(C)C)cc1)C(=O)N(C)CC(N)=O [compound 24] (H-[Dmt][dR][Phe(4-tBu)][Sar]-NH2) | > 0.2 |
| COc1ccc(C[C@H](NC(=O)[C@@H](CCCNC(=N)N)NC(=O)[C@@H](N)Cc2c(C)cc(O)cc2C)C(=O)N(C)CC(N)=O)cc1OC [compound 25] (H-[Dmt][dR][Phe(3,4-(OMe)2)][Sar]-NH2) | > 0.2 |
| Cc1cc(O)cc(C)c1C[C@H](N)C(=O)N[C@H](CCCNC(=N)N)C(=O)N[C@H](C(=O)N(C)CC(N)=O)C(c1ccccc1)c1ccccc1 [compound 26] (H-[Dmt][dR][Dip][Sar]-NH2) | > 0.2 |
| CCCCCCCCN(CC(N)=O)C(=O)[C@H](Cc1ccccc1)NC(=O)[C@@H](CCCNC(=N)N)NC(=O)[C@@H](N)Cc1c(C)cc(O)cc1C [compound 27] (H-[Dmt][dR]F[N(octyl)Gly]-NH2) | 0.05 to 0.2 |
| CCCC[C@H](NC(=O)[C@H](Cc1ccccc1)NC(=O)[C@@H](CCCN=C(N)N)NC(=O)[C@@H](N)Cc1c(C)cc(O)cc1C)C(N)=O [compound 28] (H-[Dmt][dR]F[Nle]-NH2) | 0.01 to 0.05 |
| Cc1cc(O)cc(C)c1C[C@H](N)C(=O)N[C@H](CCCNC(=N)N)C(=O)N[C@@H](Cc1ccccc1)C(=O)N[C@@H](CC(C)C)C(N)=O [compound 29] (H-[Dmt][dR]FL-NH2) | 0.01 to 0.05 |
| Cc1cc(O)cc(C)c1C[C@H](N)C(=O)N[C@H](CCCNC(=N)N)C(=O)N[C@@H](Cc1ccccc1)C(=O)N[C@H](C(N)=O)C(C)C [compound 30] (H-[Dmt][dR]FV-NH2) | 0.001 to 0.01 |
| CCCC[C@H](NC(=O)[C@H](Cc1c[nH]c2ccccc12)NC(=O)[C@@H](CCCNC(=N)N)NC(=O)[C@@H](N)Cc1c(C)cc(O)cc1C)C(N)=O [compound 31] (H-[Dmt][dR]W[Nle]-NH2) | 0.01 to 0.05 |
| Cc1cc(O)cc(C)c1C[C@H](N)C(=O)N[C@H](CCCNC(=N)N)C(=O)NCC(=O)N[C@H](C(N)=O)C(c1ccccc1)c1ccccc1 [compound 33] (H-[Dmt][dR]G[Dip]-NH2) | > 0.2 |
| Cc1cc(O)cc(C)c1C[C@H](N)C(=O)N[C@H](CCCNC(=N)N)C(=O)NCC(=O)N[C@@H](Cc1c[nH]c2ccccc12)C(N)=O [compound 34] (H-[Dmt][dR]GW-NH2) | 0.01 to 0.05 |
| Cc1cc(O)cc(C)c1C[C@H](N)C(=O)N[C@H](CCCNC(=N)N)C(=O)N(C)CC(=O)N[C@@H](Cc1c[nH]c2ccccc12)C(N)=O [compound 35] (H-[Dmt][dR][Sar]W-NH2) | > 0.2 |
| Cc1cc(O)cc(C)c1C[C@H](N)C(=O)N[C@H](CCCNC(=N)N)C(=O)N[C@@H](Cc1ccccc1)C(=O)N[C@H](C(N)=O)C(c1ccccc1)c1ccccc1 [compound 36] (H-[Dmt][dR]F[Dip]-NH2) | 0.01 to 0.05 |

| SMILES | EC50 [µM] |
| --- | --- |
| Cc1cc(O)cc(C)c1C[C@H](N)C(=O)N[C@H](C)C(=O)NCC(=O)N[C@@H](Cc1ccc(F)cc1)C(=O)NCC(N)=O [compound 38] | < 0.001 |
| Cc1cc(O)cc(C)c1C[C@H](N)C(=O)N[C@H](C)C(=O)NCC(=O)N[C@@H](Cc1ccc(C#N)cc1)C(=O)NCC(N)=O [compound 39] | < 0.001 |
| Cc1cc(O)cc(C)c1C[C@H](N)C(=O)N[C@H](C)C(=O)NCC(=O)N1Cc2ccccc2C[C@H]1C(=O)NCC(N)=O [compound 40] | 0.01 to 0.05 |
| Cc1cc(O)cc(C)c1C[C@H](N)C(=O)N[C@H](C)C(=O)NCC(=O)N[C@@H](Cc1ccc(Cl)c(Cl)c1)C(=O)NCC(N)=O [compound 41] | < 0.001 |
| Cc1cc(O)cc(C)c1C[C@H](N)C(=O)N[C@H](C)C(=O)NCC(=O)N[C@@H](CCc1ccccc1)C(=O)N(C)CC(N)=O [compound 47] | 0.001 to 0.01 |
| C[C@@H](NC(=O)[C@@H](N)Cc1ccc(O)cc1)C(=O)NCC(=O)N[C@H](CC(=O)N(C)CC(N)=O)Cc1ccccc1 [compound 62] | 0.001 to 0.01 |
| Cc1cc(O)cc(C)c1C[C@H](N)C(=O)N[C@H](C)C(=O)N(C)CC(=O)N[C@H](CC(=O)N(C)CC(N)=O)Cc1ccccc1 [compound 64] | 0.05 to 0.2 |
| Cc1cc(O)cc(C)c1C[C@H](N)C(=O)N[C@H](C)C(=O)N[C@H](C(=O)N[C@H](CC(=O)N(C)CC(N)=O)Cc1ccccc1)C(C)C [compound 69] (H-[Dmt][dA]V[β3hF][Sar]-NH2) | 0.05 to 0.2 |
| Cc1cc(C(N)=O)cc(C)c1C[C@H](N)C(=O)N[C@H](CC(=O)O)C(=O)NCC(=O)N[C@H](CC(=O)N(C)CC(N)=O)Cc1ccccc1 [compound 77] | < 0.001 |
| Cc1cc(C(N)=O)cc(C)c1C[C@H](N)C(=O)N(C)[C@@H](CCCNC(=N)N)C(=O)NCC(=O)N[C@H](CC(=O)N(C)CC(N)=O)Cc1ccccc1 [compound 78] | 0.05 to 0.2 |
| CC(=O)N[C@@H](Cc1c(C)cc(O)cc1C)C(=O)N[C@H](C)C(=O)NCC(=O)N[C@H](CC(=O)N(C)CC(N)=O)Cc1ccccc1 [compound 86] | 0.01 to 0.05 |
| Cc1cc(O)cc(C)c1C[C@H](N)C(=O)N[C@@H](C)C(=O)NCC(=O)N[C@H](CC(=O)N(C)CC(=O)O)Cc1ccccc1 [compound 88] | 0.01 to 0.05 |
| Cc1cc(O)cc(C)c1C[C@H](N)C(=O)N(C)[C@@H](CCCNC(=N)N)C(=O)NCC(=O)N[C@H](CC(=O)N(C)CC(N)=O)Cc1ccccc1 [compound 91] | 0.05 to 0.2 |
| Cc1cc(O)cc(C)c1C[C@H](N)C(=O)N[C@H](C)C(=O)NCC(=O)N1Cc2ccccc2C[C@H]1C(=O)N(C)CC(N)=O [compound 107] | 0.01 to 0.05 |
| CCCCCCCCN(CC(N)=O)C(=O)C[C@H](Cc1ccccc1)NC(=O)CNC(=O)[C@@H](C)NC(=O)[C@@H](N)Cc1c(C)cc(O)cc1C [compound 115] | 0.01 to 0.05 |
| Cc1cc(O)cc(C)c1C[C@H](N)C(=O)N[C@H](C)C(=O)NCC(=O)N[C@H](CC(=O)N(CC(N)=O)CC1CCCCC1)Cc1ccccc1 [compound 119] | 0.001 to 0.01 |
| Cc1cc(O)cc(C)c1C[C@H](N)C(=O)N[C@H](C)C(=O)NCC(=O)N[C@H](CC(=O)N(CCC(=O)O)CC(N)=O)Cc1ccccc1 [compound 120] | < 0.001 |
| Cc1cc(O)cc(C)c1C[C@H](N)C(=O)N[C@H](C)C(=O)NCC(=O)N[C@H](CC(=O)N(CCc1ccccc1)CC(N)=O)Cc1ccccc1 [compound 121] | < 0.001 |
| Cc1cc(O)cc(C)c1C[C@H](N)C(=O)N[C@H](C)C(=O)NCC(=O)N[C@H](CC(=O)N(CC(N)=O)C1CCCCC1)Cc1ccccc1 [compound 123] | < 0.001 |
| CCCCCN(CC(N)=O)C(=O)C[C@H](Cc1ccccc1)NC(=O)CNC(=O)[C@@H](C)NC(=O)[C@@H](N)Cc1c(C)cc(O)cc1C [compound 124] | < 0.001 |
